# Legend:
# [1] = biological target: T1, Levetiracetam Binding Site (LBS), rat cerebral cortex membranes (Rattus norvegicus, UniProt Q02563); experiment: LBS binding assay (competitive binding, [3H]-2-[4-(3-azidophenyl)-2-oxo-1-pyrrolidinyl]butanamide); settings: 4° C., 120 min
# T1 construct: The crude membrane pellet obtained is resuspended in 50 mmol/l Tris-HCl (pH 7.4); from tissue; host or cells: rat cerebral cortex crude membranes (male Sprague-Dawley)
# [2] = system: audiogenic seizures in sound-susceptible mice; experiment: Animal model of sound-susceptible mice (audiogenic seizures); type: in vivo; settings: intraperitoneally 60 minutes before induction of audiogenic seizures; doses given in mol/kg
# Excerpt: The activity of the compounds of formula I, or their pharmaceutically acceptable salts, as anticonvulsants can be determined in the audiogenic seizures model. The objective of this test is to evaluate the anticonvulsant potential of a compound by means of audiogenic seizures induced in sound-susceptible mice, a genetic animal model with reflex seizures. In this model of primary generalised epilepsy, seizures are evoked without electrical or chemical stimulation and the seizure types are, at least in part, similar in their clinical phenomenology to seizures occurring in man (Löscher W. & Schmidt D., Epilepsy Res. (1998), 2, p. 145-181; Buchhalter J. R., Epilepsia (1993), 34, S31-S41). Results obtained with compounds of formula I are indicative of a strong pharmacological effect.
# The objective of this test is to evaluate the anticonvulsant potency of a compound in sound-susceptible mice, a genetic animal model with reflex seizures. In this model of primary generalised epilepsy, seizures are evoked without electrical or chemical stimulation and the seizure types are, at least in part, similar in their clinical phenomenology to seizures occuring in man (Löscher W. & Schmidt D., Epilepsy Res. (1998), 2, 145-181; Buchhalter J. R., Epilepsia (1993), 34, S31-S41).
# Male or female genetically sound-sensitive mice (14-28 g; N=10), derived from a DBA strain originally selected by Dr. Lehmann of the Laboratory of Acoustic Physiology (Paris) and bred in the UCB Pharma Sector husbandry unit since 1978, are used. The experimental design consisted of several groups, one group receiving the vehicle control and the other groups different doses of the test-compound. The compounds are administered intraperitoneally 60 minutes before the induction of audiogenic seizures.
# For testing, the animals are placed in small cages, one mouse per cage, in a sound-attenuated chamber. After a period of orientation of 30 seconds, the acoustic stimulus (90 dB, 10-20 kHz) is delivered for 30 seconds via loudspeakers positioned above each cage. During this interval, the mice are observed and the presence of the 3 phases of the seizure activity namely wild running, clonic and tonic convulsions, is recorded. The proportion of mice protected against wild running, clonic and tonic convulsions, respectively, is calculated.
# For active compounds, an ED50 value, i.e. the dose producing 50% protection relative to the control group, together with 95% confidence limits, was calculated using a Probit Analysis (SAS/STAT® Software, version 6.09, PROBIT procedure) of the proportions of protected mice for each of the 3 phases of the seizure activity.
# T1 sequence (Q02563 whole entry): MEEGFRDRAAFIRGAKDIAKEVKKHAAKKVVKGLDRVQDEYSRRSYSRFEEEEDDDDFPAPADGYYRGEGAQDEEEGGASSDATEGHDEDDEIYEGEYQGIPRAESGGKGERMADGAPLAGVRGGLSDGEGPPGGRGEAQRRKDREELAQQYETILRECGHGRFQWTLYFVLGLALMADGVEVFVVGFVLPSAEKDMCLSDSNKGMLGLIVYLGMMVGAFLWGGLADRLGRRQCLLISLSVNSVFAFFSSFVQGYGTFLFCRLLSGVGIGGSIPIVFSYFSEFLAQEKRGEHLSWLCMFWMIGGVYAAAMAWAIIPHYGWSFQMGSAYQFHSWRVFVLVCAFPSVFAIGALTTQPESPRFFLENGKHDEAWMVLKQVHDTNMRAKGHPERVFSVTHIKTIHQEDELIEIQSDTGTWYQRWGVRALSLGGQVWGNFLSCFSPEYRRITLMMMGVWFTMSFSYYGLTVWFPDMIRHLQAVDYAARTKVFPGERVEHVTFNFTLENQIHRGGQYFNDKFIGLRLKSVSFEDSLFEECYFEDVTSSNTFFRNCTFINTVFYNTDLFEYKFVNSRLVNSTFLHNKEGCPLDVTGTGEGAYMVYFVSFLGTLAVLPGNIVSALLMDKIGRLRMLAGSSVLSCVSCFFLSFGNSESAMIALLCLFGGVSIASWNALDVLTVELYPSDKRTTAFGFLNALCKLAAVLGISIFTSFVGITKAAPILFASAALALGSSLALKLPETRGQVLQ
Compound,melting point [°C],pKi (affinity for the levetiracetam binding site) [1],ED50 (dose producing 50% protection against audiogenic seizures) [2]
CC[C@@H](C(N)=O)N1CC(CF)CC1=O (stereo partly drawn),87.1,,
CC[C@H](C(N)=O)N1CC(c2cccs2)CC1=O (stereo partly drawn),84,,
"CC[C@@H](C(N)=O)N1CC(c2cccc(N=[N+]=[N-])c2)CC1=O (single isomer, unassigned) [Compound 86]",94.5,Particular affinity,Particularly promising activity
CC[C@@H](C(N)=O)N1CC(C)CC1=O (stereo partly drawn) [35],73.9,,
CC[C@@H](C(N)=O)N1CC(C)CC1=O (stereo partly drawn) [36],56.9,,
"CC[C@@H](C(N)=O)N1CC(CI)CC1=O (stereo partly drawn) [Compound 10, (2S)-2-[4-(iodomethyl)-2-oxo-1-pyrrolidinyl]butanamide]",91.4,Particular affinity,Particularly promising activity
CC[C@@H](C(N)=O)N1CC(c2ccccc2)CC1=O (stereo partly drawn) [Compound 22],89,Particular affinity,Particularly promising activity
CC[C@@H](C(N)=O)N1CC(c2ccccc2)CC1=O (stereo partly drawn) [Compound 23],92.4,Particular affinity,Particularly promising activity
CC[C@@H](C(N)=O)N1CC(CI)CC1=O (stereo partly drawn) [Compound 27],107.7,Particular affinity,Particularly promising activity
"CC[C@@H](C(N)=O)N1CC(CN=[N+]=[N-])CC1=O (stereo partly drawn) [Compound 32, (2S)-2-[4-(azidomethyl)-2-oxo-1-pyrrolidinyl]butanamide]",84.8,Particular affinity,Particularly promising activity
CCC(C(N)=O)N1CC(C=C(Br)Br)CC1=O (stereo not drawn) [Compound 33],134.8,Particular affinity,Particularly promising activity
"CC[C@@H](C(N)=O)N1CC(Cn2cnnn2)CC1=O (stereo partly drawn) [Compound 40, (2S)-2-[2-oxo-4-(1H-tetrazol-1-ylmethyl)-1-pyrrolidinyl]butanamide]",82.3,Particular affinity,Particularly promising activity
CC[C@@H](C(N)=O)N1CC(c2ccccc2OC)CC1=O (stereo partly drawn) [Compound 73],112,Particular affinity,
CC[C@@H](C(N)=O)N1CC(c2cccc(OC)c2)CC1=O (stereo partly drawn) [Compound 75],91.3,Particular affinity,
CC[C@@H](C(N)=O)N1CC(c2ccsc2)CC1=O (stereo partly drawn) [Compound 83],93 to 95,Particular affinity,
CC[C@@H](C(N)=O)N1CC(CSC)CC1=O (stereo partly drawn) [Compound 100],,Particular affinity,Particularly promising activity
CCC(C(N)=O)N1CC(CI)CC1=O (stereo not drawn) [Compound 103],171.7,Particular affinity,

Compound,melting point [°C],pKi (affinity for the levetiracetam binding site) [1],ED50 (dose producing 50% protection against audiogenic seizures) [2]
CCC1CC(=O)N([C@@H](CC)C(N)=O)C1 (stereo partly drawn) [Compound 151],,Particular affinity,Particularly promising activity
CCC1CC(=O)N([C@@H](CC)C(N)=O)C1 (stereo partly drawn) [Compound 152],,Particular affinity,Particularly promising activity
CCC(C(N)=O)N1CC(C=C(F)F)CC1=O (stereo not drawn) [Compound 156],,Particular affinity,Particularly promising activity
CCC(C(N)=O)N1CC(CC2CC2)CC1=O (stereo not drawn) [Compound 165],,Particular affinity,Particularly promising activity
CC[C@@H](C(N)=O)N1CC(CCc2ccccc2)CC1=O (stereo partly drawn) [Compound 175],89.5,Particular affinity,
CC[C@@H](C(N)=O)N1CC(CCc2ccccc2)CC1=O (stereo partly drawn) [Compound 176],100.2,Particular affinity,
CCC(C(N)=O)N1CC(c2cc(C(F)(F)F)cc(C(F)(F)F)c2)CC1=O (stereo not drawn) [Compound 185],148.6,Particular affinity,
CCC(C(N)=O)N1CC(c2ccco2)CC1=O (stereo not drawn) [Compound 195],,Particular affinity,Particularly promising activity
CCC(C(N)=O)N1CC(c2ccco2)CC1=O (stereo not drawn) [Compound 196],,Particular affinity,Particularly promising activity
CCCC1CC(=O)N(C(CC)C(N)=O)C1 (stereo not drawn) [Compound 201],,Particular affinity,Particularly promising activity
"CC[C@@H](C(N)=O)N1CC(C=C(F)F)CC1=O (stereo partly drawn) [Compound 213, (2S)-2-(2-oxo-4-(2,2-difluorovinyl)-1-pyrrolidinyl)butanamide]",,Particular affinity,Particularly promising activity
"CC[C@@H](C(N)=O)N1CC(n2cccc2Br)CC1=O (stereo partly drawn) [Compound 234, (2S)-2-[4-(2-bromo-1H-pyrrol-1-yl)-2-oxo-1-pyrrolidinyl]butanamide]",,Particular affinity,Particularly promising activity
"CCC(C(N)=O)N1C[C@H](CC(C)(F)F)CC1=O (stereo partly drawn) [Compound 265, 2-[(4S)-4-(2,2-difluoropropyl)-2-oxopyrrolidinyl]butanamide]",110.9,Particular affinity,
"CCC(C(N)=O)N1CC(C#CBr)CC1=O (stereo not drawn) [Compound 267, 2-(4-bromo-ethynyl-2-oxo-1-pyrrolidinyl)butanamide]",103.9,Particular affinity,
"(2S)-2-(2-oxo-4-(2,2-difluorovinyl)-1-pyrrolidinyl)butanamide [Compound 222]",,Particular affinity,Particularly promising activity
(2S)-2-[4-(iodomethyl)-2-oxo-1-pyrrolidinyl]propanamide [Compound 110],,Particular affinity,Particularly promising activity
(2S)-2-[4-(iodomethyl)-2-oxo-pyrrolidin-1-yl]pentanamide [Compound 105],,Particular affinity,Particularly promising activity
